According to patent publication US20070191372A1, “Dna-targeted benzotriazine 1,4-dioxides and their use in cancer therapy” (Auckland Uniservices Limited, priority 2002, published 2007):

How the values were obtained:
[1] = test system: human colon carcinoma HT-29; assay: Proliferation assay (IC50) under aerobic and hypoxic conditions, HT-29; assay type: cell-based; conditions: for RHT: HT-29, ratio Tirapazamine/test compound under hypoxic conditions; for HCR: HT-29, ratio of IC50 under aerobic and hypoxic conditions; for IC50: Homo sapiens, HT-29, hypoxic (anoxia <0.001% O2), 4 h exposure
Protocol: (§1) Evaluation of the Cytotoxicity of Compounds by Proliferation Assay (IC50) Under Aerobic and Hypoxic Conditions.
(§2) Compounds representative of the invention were evaluated under both aerobic and hypoxic conditions in a proliferation assay (IC50), using two cell lines: human colon carcinoma HT-29, and human cervical carcinoma SiHa.
(§3) Drug exposures were performed in 96-well plates (Nunc) using either a 37° C. humidified incubator (20% O2, 5% CO2) or in the incubator compartment (37° C.) of an anaerobic chamber (Shell Lab) where palladium catalyst scrubbed gas (90% N2, 5% H2, 5% CO2) ensures severe anoxia (<0.001% O2). For each experiment, compounds were simultaneously tested under both oxic and hypoxic conditions against the HT-29 cell line and included TPZ as an independent internal control at the front and back of the assay (n=2). Final data was pooled from a series of seven independent experiments and is calculated using inter-experimental means. In all cases, 8-methyl-5-nitroquinoline was used as a second internal control to confirm that strict hypoxia was present during the experiment. (Siim et al. Br. J. Cancer 1994, 70, 596-603). Cell cultures were grown in αMEM (Gibco) containing 5% heat inactivated FCS and maintained in exponential growth phase. For each individual experiment an appropriate number of cells were seeded (HT-29=1000) into wells in αMEM÷10% FCS+10 mM added glucose+100 μM 2′-deoxycytidine (2′dCyd), and allowed to attach for 3 h. High glucose (final concentration 17 mM) and the presence of 2′-dCyd minimize hypoxia-induced cell cycle arrest. Replicates were then exposed to BTOs, using 2-fold serial dilutions in triplicate, for a further 4 h. Subsequently cells were washed free of compound using complete media (without glucose/2′-dCyd) and allowed to grow for 5 (oxic) or 6 (anoxic) days. Plates were stained as described previously (Wilson et al., J. Med. Chem. 1989, 32, 31-38) and IC50 values determined.
(§4) IC50=The concentration of drug (in micromolar) to reduce viable cell numbers to 50% of those of control cell cultures grown under the same conditions but not exposed to drug
(§5) RHT=Relative hypoxic toxicity is defined as the ratio of concentrations of Tirapazamine/test compound to give equal cell killing under hypoxic conditions.
(§6) HCR=Hypoxic cytotoxicity ratio is defined as the ratio of drug concentrations under aerobic and hypoxic condition to produce equal cell survival (50%) determined by proliferation assay

[2] = test system: murine SCCVII; assay: Clonogenic assay under aerobic and hypoxic conditions, SCCVII; assay type: cell-based; conditions: SCVIII cells; for IC90: Mus musculus, 1 h, hypoxic, 60 min drug exposure, SN (hypoxic), read-out: C10 hypoxic; for HCR: ratio of C10 under aerobic and hypoxic conditions; for RHT: ratio of hypoxic TPZ C10 to hypoxic compound C10
Protocol: (§7) Evaluation of the Cytotoxicity of Compounds by Clonogenic Assay Under Aerobic and Hypoxic Conditions.
(§8) Compounds representative of the invention were evaluated under both aerobic and hypoxic conditions in clonogenic assays, using three cell lines: human colon carcinoma HT-29, murine SCCVII, and human lung adenocarcinoma LXFL. Clonogenic survival was determined using aerobic and hypoxic SCCVII cell suspensions. Drug exposures were performed using continuously stirred and gassed single cell suspensions (10^6 cells/mL) at 37° C., equilibrated with 5% CO2 in air or N2 for 60 min before drug addition. After a 60 min drug exposure cells were washed by centrifugation and plated to determine colony formation Cytotoxicity was measured as the concentration required to reduce plating efficiency to 10% of controls (C10). The hypoxic cytotoxicity ratio (HCR) was determined as the ratio of the C10 values under aerobic and hypoxic conditions. The relative hypoxic toxicity (RHT) was determined as the ratio of hypoxic TPZ C10 to hypoxic BTO C10. Abbreviations used in Table 2 are:
(§9) C10=The concentration of drug (in micromolar) to reduce viable cell numbers to 10% of those of control cell cultures grown under the same conditions but not exposed to drug
as §5
(§10) HCR=Hypoxic cytotoxicity ratio is defined as the ratio of drug concentrations under aerobic and hypoxic condition to produce equal cell survival (10%) determined by clonogenic assay

[3] = test system: human cervical carcinoma SiHa; assay: Proliferation assay (IC50) under aerobic and hypoxic conditions, SiHa; assay type: cell-based; conditions: for IC50: Homo sapiens, hypoxic, 4 h exposure; for RHT: ratio Tirapazamine/test compound under hypoxic conditions; for HCR: ratio of IC50 under aerobic and hypoxic conditions
Protocol: as §1, §2, §3, §4, §5, §6

[4] = test system: human lung adenocarcinoma LXFL; assay: Clonogenic assay under aerobic and hypoxic conditions, LXFL; assay type: cell-based; conditions: LXFL cells
Protocol: as §7, §8, §9, §5, §10

melting point | IC50 [1] | IC90 [2] | IC50 [3] | SMILES | RHT [1] | HCR [1] | HCR [2] | RHT [2] | RHT [3] | HCR [3] | C10 hypoxic ([4]; hypoxic, 60 min drug exposure) | HCR ([4]; ratio of C10 under aerobic and hypoxic conditions) | RHT ([4]; ratio of hypoxic TPZ C10 to hypoxic compound C10)
148 to 152 °C | 410 nM | 290 nM |  | Cc1cccc2cc3cccc(C(=O)NCCN(C)CCNc4n[n+]([O-])c5ccccc5[n+]4[O-])c3nc12 [Compound 99, N-{2-[{2-[(1,4-Dioxido-1,2,4-benzotriazin-3-yl)amino]ethyl}(methyl)amino]ethyl}-5-methyl-4-acridinecarboxamide] | 14 | 25 | 176 | 17.2 |  |  |  |  | 
135 to 140 °C | 35 nM |  | 10 nM | Cc1cccc2cc3cccc(C(=O)NCCNCCNc4n[n+]([O-])c5ccccc5[n+]4[O-])c3nc12 [Compound 103, N-[2-({2-[(1,4-Dioxido-1,2,4-benzotriazin-3-yl)amino]ethyl}amino)ethyl]-5-methyl-4-acridinecarboxamide] | 357 | 83 |  |  | 309 | 118 |  |  | 
161 to 163 °C | 135 nM |  | 75 nM | Cc1cccc2nc3cccc(C(=O)NCCN(C)CCNc4n[n+]([O-])c5ccccc5[n+]4[O-])c3nc12 [Compound 98, N-{2-[{2-[(1,4-Dioxido-1,2,4-benzotriazin-3-yl)amino]ethyl}(methyl)amino]ethyl}-9-methyl-1-phenazinecarboxamide] | 114 | 45 |  |  | 63 | 30 |  |  | 
130 to 135 °C | 190 nM | 2300 nM | 100 nM | CN(CCNC(=O)c1cccc2ccc(-c3ccncc3)nc12)CCNc1n[n+]([O-])c2ccccc2[n+]1[O-] [Compound 96, N-{2-[{2-[(1,4-Dioxido-1,2,4-benzotriazin-3-yl)amino]ethyl}(methyl)amino]ethyl}-2-(4-pyridinyl)-8-quinolinecarboxamide] | 31 | 77 | 65 | 3.9 | 37 | 78 |  |  | 
163 to 165 °C |  |  |  | CN(CCNC(=O)c1cccc2nc3ccccc3nc12)CCNc1n[n+]([O-])c2ccccc2[n+]1[O-] [Compound 97, N-{2-[{2-[(1,4-Dioxido-1,2,4-benzotriazin-3-yl)amino]ethyl}(methyl)amino]ethyl}-1-phenazinecarboxamide] |  |  |  |  |  |  |  |  | 
160 to 165 °C | 490 nM |  | 160 nM | O=C(NCCNCCNc1n[n+]([O-])c2ccccc2[n+]1[O-])c1cccc2ccc(-c3ccncc3)nc12 [Compound 102, N-[2-({2-[(1,4-Dioxido-1,2,4-benzotriazin-3-yl)amino]ethyl}amino)ethyl]-2-(4-pyridinyl)-8-quinolinecarboxamide] | 12 | 54 |  |  | 23 | 53 |  |  | 

Continued, molecule first:

SMILES | melting point | IC50 [1] | IC90 [2] | IC50 [3] | RHT [1] | HCR [1] | HCR [2] | RHT [2] | RHT [3] | HCR [3] | C10 hypoxic ([4]; hypoxic, 60 min drug exposure) | HCR ([4]; ratio of C10 under aerobic and hypoxic conditions) | RHT ([4]; ratio of hypoxic TPZ C10 to hypoxic compound C10)
Cc1ccc2c(c1)[n+]([O-])nc(NCCCN(C)CCCNC(=O)c1cccc3cc4ccccc4nc13)[n+]2[O-] [Compound 74, N-[3-(Methyl{3-[(7-methyl-1,4-dioxido-1,2,4-benzotriazin-3-yl)amino]propyl}amino)propyl]-4-acridinecarboxamide] | 166 to 168 °C | 130 nM |  |  | 44.7 | 95 |  |  |  |  |  |  | 
Cc1cccc2nc3c(C(=O)NCCCN(C)CCCNc4n[n+]([O-])c5ccccc5[n+]4[O-])cccc3nc12 [Compound 45, N-{3-[{3-[(1,4-Dioxido-1,2,4-benzotriazin-3-yl)amino]propyl}(methyl)amino]-propyl}-9-methyl-4-phenazinecarboxamide] | 138 to 142 °C | 18 nM | 310 nM |  | 321 | 31 | 23.9 | 29 |  |  |  |  | 
Cc1ccc2c(c1)[n+]([O-])c(NCCCN(C)CCCNC(=O)c1cccc3ccc(-c4ccncc4)nc13)n[n+]2[O-] [Compound 86, N-[3-(Methyl{3-[(6-methyl-1,4-dioxido-1,2,4-benzotriazin-3-yl)amino]propyl}amino)propyl]-2-(4-pyridinyl)-8-quinolinecarboxamide] | 178 to 180 °C | 225 nM |  | 105 nM | 66 | 168 |  |  | 35 | 136 |  |  | 
O=C(NCCOCCNc1n[n+]([O-])c2ccccc2[n+]1[O-])c1cccc2cccnc12 [Compound 24, N-(2-{2-[(1,4-Dioxido-1,2,4-benzotriazin-3-yl)amino]ethoxy}ethyl)-8-quinolinecarboxamide] | 168 to 170 °C |  |  |  |  |  |  |  |  |  |  |  | 
O=C(CCNc1ccnc2cc(Cl)ccc12)NCCCNc1n[n+]([O-])c2ccccc2[n+]1[O-] [Compound 65, 3-[(7-Chloro-4-quinolinyl)amino]-N-{3-[(1,4-dioxido-1,2,4-benzotriazin-3-yl)amino]propyl}propanamide] | 202 °C (dec.) |  |  |  |  |  |  |  |  |  |  |  | 
Cc1ccc2c(c1)[n+]([O-])nc(NCCCN(C)CCCNC(=O)c1cccc3ccc(-c4ccncc4)nc13)[n+]2[O-] [Compound 75, N-[3-(Methyl{3-[(7-methyl-1,4-dioxido-1,2,4-benzotriazin-3-yl)amino]propyl}amino)propyl]-2-(4-pyridinyl)-8-quinolinecarboxamide] | 178 to 180 °C | 200 nM |  | 70 nM | 29 | 92 |  |  | 53 | 110 |  |  | 
Cc1ccc2c(c1)[n+]([O-])c(NCCCNCCCNC(=O)c1cccc3nc4cccc(C)c4nc13)n[n+]2[O-] [Compound 88, 9-Methyl-N-[3-({3-[(6-methyl-1,4-dioxido-1,2,4-benzotriazin-3-yl)amino]propyl}amino)propyl]-1-phenazinecarboxamide] | 80 to 83 °C |  |  |  |  |  |  |  |  |  |  |  | 
O=C(NCCOCCNc1n[n+]([O-])c2ccccc2[n+]1[O-])c1cccc2[nH]c(-c3ccccc3)nc12 [Compound 25, N-(2-{2-[(1,4-Dioxido-1,2,4-benzotriazin-3-yl)amino]ethoxy}ethyl)-2-phenyl-1H-benzimidazole-4-carboxamide] | 203 to 207 °C |  |  |  |  |  |  |  |  |  |  |  | 
CN(CCCNC(=O)c1cccc2cc3ccccc3nc12)CCCNc1n[n+]([O-])c2ccccc2[n+]1[O-] [Compound 41, N-{3-[{3-[(1,4-Dioxido-1,2,4-benzotriazin-3-yl)amino]propyl}(methyl)amino]propyl}-4-acridinecarboxamide] |  | 43 nM | 800 nM |  | 134 | 154 | 52.5 | 12.5 |  |  | 0.4 µM | 50 | 37.5
Cl.O=C(NCCCNCCCNc1n[n+]([O-])c2ccccc2[n+]1[O-])c1cccc2nc3ccccc3nc12 [Compound 31, N-[3-({3-[(1,4-dioxido-1,2,4-benzotriazin-3-yl)amino]propyl}amino)propyl]-1-phenazinecarboxamide hydrochloride] | 163 to 169 °C | 356 nM |  |  | 163 | 5.3 |  |  |  |  |  |  | 
